Assay type in all cases: in vivo
For assay [1], the system named is ducksalad (Heteranthera limosa). The experiment in a line: Test C flooded paddy test: ducksalad. Particulars: scale 0 to 100 (0 no effect, 100 complete control); for pest or weed control at 125 g/ha / pest or weed control at 250 g/ha / pest or weed control at 62 g/ha: Heteranthera limosa, read-out: Plant response rating, Ducksalad. In short, it runs like this: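 Visual ratings from 0 (no effect) to 100 (complete control), made against untreated controls 13 to 15 days after treatment, express plant response. Compounds went directly into paddy water over 2-leaf stage plants in pots flooded to 3 cm.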

The test system of assay [2] is galium (catchweed bedstraw, Galium aparine). The experiment in a line: Test D pre-/postemergence: galium. The text has this: (§1) Seeds of plant species selected from bluegrass (annual bluegrass, Poa annua), blackgrass (Alopecurus myosuroides), canarygrass (Phalaris minor), chickweed (common chickweed, Stellaria media), galium (catchweed bedstraw, Galium aparine), bromegrass, downy (downy bromegrass, Bromus tectorum), field poppy (Papaver rhoeas), field violet (Viola arvensis), foxtail, green (green foxtail, Setaria viridis), deadnettle (henbit deadnettle, Lamium amplexicaule), ryegrass, Italian (Italian ryegrass, Lolium multiflorum), kochia (Kochia scoparia), lambsquarters (Chenopodium album), oilseed rape (Brassica napus), pigweed (Amaranthus retroflexus), Russian thistle (Salsola iberica), chamomile (scentless chamomile, Matricaria inodora), speedwell (bird's-eye speedwell, Veronica persica), barley, spring (spring barley, Hordeum vulgare), wheat, spring (spring wheat, Triticum aestivum), buckwheat, wild (wild buckwheat, Polygonum convolvulus), mustard, wild (wild mustard, Sinapis arvensis), oat, wild (wild oat, Avena fatua), radish, wild (wild radish, Raphanus raphanistrum), windgrass (Apera spica-venti), barley, winter (winter barley, Hordeum vulgare), and wheat, winter (winter wheat, Triticum aestivum) were planted into a silt loam soil and treated preemergence with test chemicals formulated in a non-phytotoxic solvent mixture which included a surfactant. At the same time, these same crop and weed species were planted in pots containing the planting medium comprising spaghnum peat moss, vermiculite, wetting agent and starter nutrients and treated with postemergence applications of the test chemicals formulated in the same manner. Plants ranged in height from 2 to 18 cm (1- to 4-leaf stage).
(§2) Treated plants and controls were maintained in a controlled growth environment for 14 to 21 days after which time all species were compared to controls and visually evaluated. Plant response ratings, summarized in Table D, are based on a scale of 0 to 100 where 0 is no effect and 100 is complete control. A dash (-) response means no test result.

Assay [3] has as its system chamomile (scentless chamomile, Matricaria inodora). The experiment in a line: Test D pre-/postemergence: chamomile.
Excerpt: as §1, §2

Where [4] appears, read: Flood (flooded paddy test), 125 g ai/ha, visual rating after 13 to 15 days.
Where [5] appears, read: Flood (flooded paddy test), 250 g ai/ha, visual rating after 13 to 15 days.
Setting [6] is: Flood (flooded paddy test), 62 g ai/ha, visual rating after 13 to 15 days.
[7] abbreviates: Postemergence, 31 g ai/ha, scale 0 to 100 (0 no effect, 100 complete control).
Where [8] appears, read: Postemergence, 62 g ai/ha, scale 0 to 100 (0 no effect, 100 complete control).
Where [9] appears, read: Postemergence, 125 g ai/ha, scale 0 to 100, 0 no effect, 100 complete control.
[10] abbreviates: Postemergence, 250 g ai/ha, scale 0 to 100 (0 no effect, 100 complete control).
[11] abbreviates: Postemergence, 16 g ai/ha, scale 0 to 100.
The mark [12] stands for this setting: Preemergence, 62 g ai/ha, scale 0 to 100.
Setting [13] is: Preemergence, 125 g ai/ha, scale 0 to 100.
Where [14] appears, read: Preemergence, 250 g ai/ha, scale 0 to 100.
[15] abbreviates: Preemergence, 31 g ai/ha, scale 0 to 100, 0 no effect, 100 complete control.
[16] abbreviates: Preemergence, 16 g ai/ha, scale 0 to 100, 0 no effect, 100 complete control.

Where two headings read alike, the source gives them in different places.

The text below walks through data of patent US9302999B2, “Substituted triazoles as herbicides” (E. I. DU PONT DE NEMOURS AND COMPANY, priority 2012, dated 2016).

With `COCc1nn(-c2ccc(C(F)(F)F)cc2)nc1Oc1cccc(OC(F)(F)F)c1` [Compound 115, 4-(methoxymethyl)-5-[3-(trifluoromethoxy)phenoxy]-2-[4-(trifluoromethyl)phenyl]-2H-1,2,3-triazole], in assay [1] (setting [4]), the pest or weed control at 125 g/ha amounted to 0%. Moreover, in assay [1] (setting [5]), the pest or weed control at 250 g/ha came out at 20%. Also, in assay [1] (Flood, 62 g ai/ha), the pest or weed control at 62 g/ha was found to be 0%.
For the compound `COc1nn(-c2ccc(C(F)(F)F)cc2)nc1Cc1ccnc(C(F)(F)F)c1` [Compound 15, 4-[[5-methoxy-2-[4-(trifluoromethyl)phenyl]-2H-1,2,3-triazol-4-yl]methyl]-2-(trifluoromethyl)pyridine], the pest or weed control at 62 g/ha in assay [1] (setting [6]) was determined as 40%. The pest or weed control at 250 g/ha in assay [1] (setting [5]) is 60%. For the same compound, the “Plant response rating: Galium” value in assay [2] (setting [7]) stood at 55; in assay [2] (setting [8]) it was 70; in assay [2] (setting [9]), 100; in assay [2] (setting [10]) it was 100. Moreover, the “Plant response rating, Galium” value in assay [2] (setting [11]) is on record as 50; in assay [2] (setting [12]) it was 30; in assay [2] (setting [13]), 100; in assay [2] (setting [14]), 100. Moreover, the “Plant response rating: Chamomile” value in assay [3] (setting [7]) came out at 0; in assay [3] (setting [8]), 0; in assay [3] (setting [9]), 25; in assay [3] (setting [10]), 100. In assay [3] (setting [11]), the “Plant response rating, Chamomile” value stood at 0.
`Cc1nn(-c2ccc(C(F)(F)F)cn2)nc1Cc1cccc(C(F)(F)F)c1` [Compound 106]: the “Plant response rating, Ducksalad” value came to 70 in assay [1] (setting [4]); 70 in assay [1] (setting [5]); 0 in assay [1] (Flood, 31 g ai/ha); 60 in assay [1] (Flood, 62 g ai/ha). The “Plant response rating: Galium” value is on record as 40 in assay [2] (setting [7]), 40 in assay [2] (setting [8]), 40 in assay [2] (setting [9]) and 60 in assay [2] (setting [10]). Moreover, the “Plant response rating, Galium” value in assay [2] (setting [11]) was found to be 20; in assay [2] (setting [15]) it was 0; in assay [2] (setting [12]), 0; in assay [2] (setting [13]), 40; in assay [2] (setting [14]), 80. The “Plant response rating: Chamomile” value in assay [3] (setting [7]) is recorded as 0; in assay [3] (setting [8]), 0; in assay [3] (setting [9]), 0; in assay [3] (setting [10]), 25. Besides, the “Plant response rating, Chamomile” value in assay [3] (setting [11]) is 0.
For the compound `COc1nn(-c2ccc(C(F)(F)F)cc2)nc1Cc1ccnc(C(F)F)c1` [Compound 138], the “Plant response rating: Galium” value is 75 in assay [2] (setting [7]), 80 in assay [2] (setting [8]), 90 in assay [2] (setting [9]) and 100 in assay [2] (setting [10]). Moreover, the “Plant response rating, Galium” value in assay [2] (setting [11]) came out at 60. The “Plant response rating: Chamomile” value in assay [3] (setting [7]) is reported as 10; in assay [3] (setting [8]), 30; in assay [3] (setting [9]), 60; in assay [3] (setting [10]) it was 80. Also, the “Plant response rating, Chamomile” value in assay [3] (setting [11]) is recorded as 0.
Regarding `Cc1nn(-c2ccc(F)c(C(F)(F)F)c2)nc1Cc1ccnc(C(F)(F)F)c1` [Compound 156], the “Plant response rating: Galium” value in assay [2] (setting [7]) stood at 75; in assay [2] (setting [8]), 75; in assay [2] (setting [9]), 80. In addition, the “Plant response rating, Galium” value in assay [2] (setting [11]) turned out to be 70. For the same compound, the “Plant response rating: Chamomile” value in assay [3] (setting [7]) was 70; in assay [3] (setting [8]) it was 75; in assay [3] (setting [9]) it was 100. Besides, the “Plant response rating, Chamomile” value is on record as 50 in assay [3] (setting [11]); 10 in assay [3] (setting [16]); 55 in assay [3] (setting [15]); 100 in assay [3] (setting [12]); 100 in assay [3] (setting [13]).
As for `FC(F)(F)COc1nn(-c2ccc(C(F)(F)F)cc2)nc1Cc1ccnc(C(F)(F)F)c1` [Compound 14, 4-[[5-(2,2,2-trifluoroethoxy)-2-[4-(trifluoromethyl)phenyl]-2H-1,2,3-triazol-4-yl]methyl]-2-(trifluoromethyl)pyridine], the pest or weed control at 62 g/ha in assay [1] (setting [6]) worked out at 40%. Further, the pest or weed control at 250 g/ha in assay [1] (setting [5]) amounted to 60%. The “Plant response rating: Galium” value in assay [2] (setting [7]) is 45; in assay [2] (setting [8]) it was 55; in assay [2] (setting [9]), 55; in assay [2] (setting [10]) it was 70. Moreover, the “Plant response rating, Galium” value in assay [2] (setting [12]) was 0; in assay [2] (setting [13]), 100; in assay [2] (setting [14]), 100. Moreover, the “Plant response rating: Chamomile” value turned out to be 20 in assay [3] (setting [7]), 60 in assay [3] (setting [8]), 100 in assay [3] (setting [9]) and 100 in assay [3] (setting [10]).
For `Cc1nn(-c2ccc(C(F)(F)F)cc2)nc1Oc1ccnc(C(F)(F)F)c1` [Compound 120], the “Plant response rating, Ducksalad” value in assay [1] (setting [4]) was 80; in assay [1] (setting [5]) it was 85; in assay [1] (Flood, 62 g ai/ha), 70. For the same compound, the “Plant response rating: Galium” value was determined as 60 in assay [2] (setting [7]), 70 in assay [2] (setting [8]), 98 in assay [2] (setting [9]) and 100 in assay [2] (setting [10]). In addition, the “Plant response rating, Galium” value was determined as 50 in assay [2] (setting [11]); 0 in assay [2] (setting [16]); 15 in assay [2] (setting [15]); 65 in assay [2] (setting [12]); 100 in assay [2] (setting [13]); 100 in assay [2] (setting [14]). Further, the “Plant response rating: Chamomile” value in assay [3] (setting [7]) came to 25; in assay [3] (setting [8]), 40; in assay [3] (setting [9]), 80; in assay [3] (setting [10]) it was 90. Further, the “Plant response rating, Chamomile” value in assay [3] (setting [11]) was 10; in assay [3] (setting [16]), 0; in assay [3] (setting [15]), 10; in assay [3] (setting [12]), 20; in assay [3] (setting [13]) it was 100; in assay [3] (setting [14]), 100.
Take `Cc1nn(-c2ccc(C(F)(F)F)cc2)nc1Oc1csc(C(F)(F)F)c1` [Compound 1, 4-methyl-2-[4-(trifluoromethyl)phenyl]-5-[[5-(trifluoromethyl)-3-thienyl]oxy]-2H-1,2,3-triazole]: the pest or weed control at 62 g/ha in assay [1] (setting [6]) is 0%. Moreover, the pest or weed control at 250 g/ha in assay [1] (setting [5]) came out at 0%.
For `FCc1nn(-c2ccc(C(F)(F)F)cc2)nc1Oc1cccc(OC(F)(F)F)c1` [Compound 116, 4-(fluoromethyl)-5-[3-(trifluoromethoxy)phenoxy]-2-[4-(trifluoromethyl)phenyl]-2H-1,2,3-triazole], the pest or weed control at 125 g/ha in assay [1] (setting [4]) amounted to 30%. For the same compound, the pest or weed control at 250 g/ha in assay [1] (setting [5]) is 50%. Further, in assay [1] (Flood, 62 g ai/ha), the pest or weed control at 62 g/ha worked out at 0%.
